Calls of active or inactive are those of the source. The rule behind the calls is not given here.
Assays:
L02 [1] = assay: Cytotoxicity against human LO2 cells assessed as reduction in cell viability after 48 hrs by MTT assay; assay type: cell-based; conditions: for IC50: Homo sapiens, L02, 48 h
L02 [2] = assay: (§1) Cytotoxicity against human LO2 cells assessed as induction of hydrogen peroxide-responsive hydroxyl radicals-mediated cell killing by measuring cell viability at 62.5 uM preincubated for 3 hrs followed by 100 uM H2O2 treatment for 45 mins and measured after 48 hrs by MTT assay; assay type: cell-based; conditions: l02, 62.5 µM
A549 [3] = assay: Cytotoxicity against human A549 cells assessed as reduction in cell viability co-treated with alpha-tocopherol after 48 hrs by MTT assay; assay type: functional, cell-based
[4] = Induction of hydroxyl radicals generation assessed as methyl radical formation by measuring DMPO/CH3 radical level at 50 uM in presence of H2O2 measured after 5 mins by ESR spectral analysis based EPR secondary radical spin-trapping method; assay type: functional
A549 [5] = assay: Induction of hydrogen peroxide-responsive hydroxyl radicals generation in human A549 cells at 2.5 to 7.5 uM pretreated for 3 hrs followed by 2 uM rhodamine nitroxide probe 3 addition and measured after 12 hrs by fluorescence imaging assay; assay type: functional, cell-based
A549 [6] = assay: Induction of hydrogen peroxide-responsive hydroxyl radicals generation in human A549 cells at 7.5 uM pretreated for 3 hrs followed by 20 uM coumarin-cyanine probe 1 addition and measured after 0.5 hrs in presence of catalase by fluorescence imaging assay; assay type: functional, cell-based
A549 [7] = assay: Cytotoxicity against human A549 cells assessed as reduction in cell viability after 48 hrs by MTT assay; assay type: functional, cell-based; conditions: A549, 48 h
A549 [8] = assay: as §1, with “A549” for “LO2”, “50” for “100”, “assay (reference value: 75.8%)” for “assay”; assay type: functional
HepG2 = assay: Cytotoxicity against human HepG2 cells assessed as reduction in cell viability after 48 hrs by MTT assay; assay type: functional, cell-based; conditions: HepG2, 48 h
L02 [9] = assay: Induction of hydrogen peroxide-responsive hydroxyl radicals generation in human LO2 cells at 7.5 uM pretreated for 3 hrs followed by 20 uM coumarin-cyanine probe 1 addition and measured after 0.5 hrs in presence of catalase by fluorescence imaging assay; assay type: cell-based; conditions: l02, 0.5 h
[10] = Induction of hydroxyl radicals generation assessed as DMPO/hydroxyl radical level at 50 uM in presence of H2O2 measured after 5 mins by ESR spectral analysis based EPR secondary radical spin-trapping method; assay type: functional
A549 [11] = assay: Induction of hydrogen peroxide-responsive hydroxyl radicals generation in human A549 cells at 2.5 to 7.5 uM pretreated for 3 hrs followed by 20 uM coumarin-cyanine probe 1 addition and measured after 0.5 hrs by fluorescence imaging assay; assay type: functional, cell-based
A549 [12] = assay: Induction of hydrogen peroxide-responsive hydroxyl radicals generation in human A549 cells at 7.5 uM pretreated for 3 hrs followed by 2 uM rhodamine nitroxide probe 3 addition and measured after 12 hrs by fluorescence imaging assay; assay type: functional, cell-based
A549 [13] = assay: Induction of hydrogen peroxide-responsive hydroxyl radicals generation in human A549 cells at 7.5 uM pretreated for 3 hrs followed by 20 uM coumarin-cyanine probe 1 addition and measured after 0.5 hrs by fluorescence imaging assay; assay type: functional, cell-based

Structure (SMILES) | IC50 (L02 [1]) | Activity (L02 [1]; human, l02, 48 h) | Activity (L02 [2]) | Activity (A549 [3]) | Activity [4] | Activity (A549 [5]) | Activity (A549 [6]) | IC50 (A549 [7]) | Activity (A549 [8]) | IC50 (HepG2) | Activity (L02 [9]) | Activity [10] | Activity (A549 [11]) | Activity (A549 [12]) | Activity (A549 [13])
O=C1C(Cl)=C(C2=C(Cl)C(=O)c3ccccc3C2=O)C(=O)c2ccccc21 | > 10 µM | Non-Toxic | Non-Toxic | Active | Active | Active | inactive | 2.14 µM | 52.6% | 2.29 µM | Non-Toxic | Active | Active |  | 
O=C1C(O)=C(C2=C(Cl)C(=O)c3ccccc3C2=O)C(=O)c2ccccc21 | > 10 µM |  |  |  | Active |  |  | 4.25 µM |  | 4.59 µM |  | Active |  | Active | Active
O=C1C=C(C2=CC(=O)c3ccccc3C2=O)C(=O)c2ccccc21 | > 10 µM |  |  |  | inactive |  |  | > 10 µM |  | > 10 µM |  | inactive |  | inactive | inactive

— ChEMBL document CHEMBL4261612, “Designing dichlorobinaphthoquinone as a prooxidative anticancer agent based on hydrogen peroxide-responsive in situ production of hydroxyl radicals” (Eur J Med Chem, 2018)
